Test results taken from PubChem BioAssay AID1845194 (Molecular Pharmacology Branch, DTP, NCI, 2023).
Several values for one entry are separate records, joined by “and”; a condition that tells them apart may be missing. Identical values can stand only once.

System: 287954-098-R-J1 tumor spheroid viability
Assay: Anticancer human tumor 287954-098-R-J1 patient-derived Ewing sarcoma cell line growth inhibition
Conditions: spheroids with HUVEC and MSC; for viability, T/C: stronger effect = lower value
Summary of the method: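 Complex tumor spheroids combined malignant cells with endothelial cells and mesenchymal stem cells. DNA-damaging drugs and DNA repair inhibitors were tested alone and in combination, at half-log dilutions down from clinical Cmax (top 10 microM if Cmax unknown), 0.25% DMSO final.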

[1] = curve of first compound, second compound 1 µM
[2] = curve of first compound, second compound 3.16 µM
[3] = curve of first compound, second compound 10 µM
[4] = curve of first compound, second compound 31.6 µM
[5] = curve of first compound, second compound 100 µM
[6] = second compound 1 µM, first compound 0.0316 µM
[7] = second compound 1 µM, first compound 0.1 µM
[8] = second compound 1 µM, first compound 0.316 µM
[9] = second compound 1 µM, first compound 1 µM
[10] = second compound 1 µM, first compound 3.16 µM
[11] = second compound 1 µM, first compound 10 µM
[12] = second compound 3.16 µM, first compound 0.0316 µM
[13] = second compound 3.16 µM, first compound 0.1 µM
[14] = second compound 3.16 µM, first compound 0.316 µM
[15] = second compound 3.16 µM, first compound 1 µM
[16] = second compound 3.16 µM, first compound 3.16 µM
[17] = second compound 3.16 µM, first compound 10 µM
[18] = second compound 10 µM, first compound 0.0316 µM
[19] = second compound 10 µM, first compound 0.1 µM
[20] = second compound 10 µM, first compound 0.316 µM
[21] = second compound 10 µM, first compound 1 µM
[22] = second compound 10 µM, first compound 3.16 µM
[23] = second compound 10 µM, first compound 10 µM
[24] = second compound 31.6 µM, first compound 0.0316 µM
[25] = second compound 31.6 µM, first compound 0.1 µM
[26] = second compound 31.6 µM, first compound 0.316 µM
[27] = second compound 31.6 µM, first compound 1 µM
[28] = second compound 31.6 µM, first compound 3.16 µM
[29] = second compound 31.6 µM, first compound 10 µM
[30] = second compound 100 µM, first compound 0.0316 µM
[31] = second compound 100 µM, first compound 0.1 µM
[32] = second compound 100 µM, first compound 0.316 µM
[33] = second compound 100 µM, first compound 1 µM
[34] = second compound 100 µM, first compound 3.16 µM
[35] = second compound 100 µM, first compound 10 µM
[36] = curve of first compound, second compound 30 pM
[37] = curve of first compound, second compound 94.9 pM
[38] = curve of first compound, second compound 0.0003 µM
[39] = curve of first compound, second compound 0.000949 µM
[40] = curve of first compound, second compound 0.003 µM
[41] = second compound 30 pM, first compound 0.0316 µM
[42] = second compound 30 pM, first compound 0.1 µM
[43] = second compound 30 pM, first compound 0.316 µM
[44] = second compound 30 pM, first compound 1 µM
[45] = second compound 30 pM, first compound 3.16 µM
[46] = second compound 30 pM, first compound 10 µM
[47] = second compound 94.9 pM, first compound 0.0316 µM
[48] = second compound 94.9 pM, first compound 0.1 µM
[49] = second compound 94.9 pM, first compound 0.316 µM
[50] = second compound 94.9 pM, first compound 1 µM
[51] = second compound 94.9 pM, first compound 3.16 µM
[52] = second compound 94.9 pM, first compound 10 µM
[53] = second compound 0.0003 µM, first compound 0.0316 µM
[54] = second compound 0.0003 µM, first compound 0.1 µM
[55] = second compound 0.0003 µM, first compound 0.316 µM
[56] = second compound 0.0003 µM, first compound 1 µM
[57] = second compound 0.0003 µM, first compound 3.16 µM
[58] = second compound 0.0003 µM, first compound 10 µM
[59] = second compound 0.000949 µM, first compound 0.0316 µM
[60] = second compound 0.000949 µM, first compound 0.1 µM
[61] = second compound 0.000949 µM, first compound 0.316 µM
[62] = second compound 0.000949 µM, first compound 1 µM
[63] = second compound 0.000949 µM, first compound 3.16 µM
[64] = second compound 0.000949 µM, first compound 10 µM
[65] = second compound 0.003 µM, first compound 0.0316 µM
[66] = second compound 0.003 µM, first compound 0.1 µM
[67] = second compound 0.003 µM, first compound 0.316 µM
[68] = second compound 0.003 µM, first compound 1 µM
[69] = second compound 0.003 µM, first compound 3.16 µM
[70] = second compound 0.003 µM, first compound 10 µM
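Further: spheroids exposed to compound for 7 days before viability readout.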
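Wherever viability, T/C is given: luminescent signal taken as surrogate of viable cell content; 100% = DMSO vehicle control viability and lower means growth inhibition.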

## CC(C)n1c(=O)n(C)c2cnc3cc(F)c(-c4ccc(OCCCN5CCCCC5)nc4)cc3c21 + Cn1nnc2c(C(N)=O)ncn2c1=O
[1]
  IC50: > 10 µM
[2]
  IC50: > 10 µM
[3]
  IC50: > 10 µM
[4]
  IC50: > 10 µM
[5]
  IC50: > 10 µM
[6]
  viability, T/C: 97%
[7]
  viability, T/C: 97.6%
[8]
  viability, T/C: 110%
[9]
  viability, T/C: 108%
[10]
  viability, T/C: 105%
[11]
  viability, T/C: 97.9%
[12]
  viability, T/C: 106%
[13]
  viability, T/C: 110%
[14]
  viability, T/C: 110%
[15]
  viability, T/C: 112%
[16]
  viability, T/C: 118%
[17]
  viability, T/C: 85.9%
[18]
  viability, T/C: 109%
[19]
  viability, T/C: 105%
[20]
  viability, T/C: 104%
[21]
  viability, T/C: 109%
[22]
  viability, T/C: 118%
[23]
  viability, T/C: 79.6%
[24]
  viability, T/C: 113%
[25]
  viability, T/C: 110%
[26]
  viability, T/C: 105%
[27]
  viability, T/C: 113%
[28]
  viability, T/C: 113%
[29]
  viability, T/C: 85.2%
[30]
  viability, T/C: 92.5%
[31]
  viability, T/C: 104%
[32]
  viability, T/C: 94.3%
[33]
  viability, T/C: 112%
[34]
  viability, T/C: 109%
[35]
  viability, T/C: 103%

## [2H]c1nc(C)nc([2H])c1-c1cc(NC[C@@H](C)c2cccc3c(C(=O)NC)ccnc23)ncn1 + COc1cc2c(cc1O)CCNC21CSC2c3c(OC(C)=O)c(C)c4c(c3C(COC1=O)N1C(O)C3Cc5cc(C)c(OC)c(O)c5C(C21)N3C)OCO4
[36]
  IC50: > 10 µM
[37]
  IC50: > 10 µM
[38]
  IC50: > 10 µM
[39]
  IC50: < 0.0316 µM
[40]
  IC50: < 0.0316 µM
[41]
  viability, T/C: 109%
[42]
  viability, T/C: 104%
[43]
  viability, T/C: 104%
[44]
  viability, T/C: 108%
[45]
  viability, T/C: 109%
[46]
  viability, T/C: 98.6%
[47]
  viability, T/C: 106%
[48]
  viability, T/C: 114%
[49]
  viability, T/C: 107%
[50]
  viability, T/C: 110%
[51]
  viability, T/C: 101%
[52]
  viability, T/C: 96.7%
[53]
  viability, T/C: 105%
[54]
  viability, T/C: 108%
[55]
  viability, T/C: 112%
[56]
  viability, T/C: 107%
[57]
  viability, T/C: 95.4%
[58]
  viability, T/C: 89.2%
[59]
  viability, T/C: 0.38%
[60]
  viability, T/C: 0.51%
[61]
  viability, T/C: 0.33%
[62]
  viability, T/C: 0.67%
[63]
  viability, T/C: 0.26%
[64]
  viability, T/C: 0.31%
[65]
  viability, T/C: 0.21%
[66]
  viability, T/C: 0.24%
[67]
  viability, T/C: 0.17%
[68]
  viability, T/C: 0.15%
[69]
  viability, T/C: 0.14%
[70]
  viability, T/C: 0.25%

## CC(C)n1c(=O)n(C)c2cnc3cc(F)c(-c4ccc(OCCCN5CCCCC5)nc4)cc3c21 + COc1cc2c(cc1O)CCNC21CSC2c3c(OC(C)=O)c(C)c4c(c3C(COC1=O)N1C(O)C3Cc5cc(C)c(OC)c(O)c5C(C21)N3C)OCO4
[36]
  IC50: 4.53 µM
[37]
  IC50: < 0.0316 µM
[38]
  IC50: < 0.0316 µM
[39]
  IC50: < 0.0316 µM
[40]
  IC50: < 0.0316 µM
[41]
  viability, T/C: 44.4%
[42]
  viability, T/C: 84.8%
[43]
  viability, T/C: 62.4%
[44]
  viability, T/C: 85.3%
[45]
  viability, T/C: 81.3%
[46]
  viability, T/C: 2.07%
[47]
  viability, T/C: 14.9%
[48]
  viability, T/C: 14.4%
[49]
  viability, T/C: 8.68%
[50]
  viability, T/C: 14.2%
[51]
  viability, T/C: 8.71%
[52]
  viability, T/C: 0.47%
[53]
  viability, T/C: 1.47%
[54]
  viability, T/C: 1.47%
[55]
  viability, T/C: 1.52%
[56]
  viability, T/C: 1.56%
[57]
  viability, T/C: 1.71%
[58]
  viability, T/C: 0.41%
[59]
  viability, T/C: 0.31%
[60]
  viability, T/C: 0.27%
[61]
  viability, T/C: 0.36%
[62]
  viability, T/C: 0.6%
[63]
  viability, T/C: 0.33%
[64]
  viability, T/C: 0.36%
[65]
  viability, T/C: 0.18%
[66]
  viability, T/C: 0.2%
[67]
  viability, T/C: 0.18%
[68]
  viability, T/C: 0.23%
[69]
  viability, T/C: 0.25%
[70]
  viability, T/C: 0.4%

## CC1COCCN1c1cc(-c2ccnn2C)c2ccnc(-c3ccn[nH]3)c2n1 (configuration not stated)
Compound 0.0316 µM
  viability, T/C: 107% and 114% and 106%
Compound 0.1 µM
  viability, T/C: 78.3% and 89.9% and 97.7%
Compound 0.316 µM
  viability, T/C: 22.6% and 21.9% and 32.2%
Compound 1 µM
  viability, T/C: 6.79% and 3.9% and 8.44%
Compound 3.16 µM
  viability, T/C: 1.99% and 1.74% and 1.91%
Compound 10 µM
  viability, T/C: 3.29% and 2.26% and 3.3%
Curve of compound
  IC50: 0.18 µM and 0.197 µM and 0.232 µM

## COc1cc(C)[nH]c(=O)c1CN1CCc2c(Cl)cc(C(OC)C3COC3)c(Cl)c2C1=O (configuration not stated) + Cn1nnc2c(C(N)=O)ncn2c1=O
[1]
  IC50: > 10 µM
[2]
  IC50: > 10 µM
[3]
  IC50: > 10 µM
[4]
  IC50: > 10 µM
[5]
  IC50: > 10 µM
[6]
  viability, T/C: 98%
[7]
  viability, T/C: 89.7%
[8]
  viability, T/C: 96.8%
[9]
  viability, T/C: 93.3%
[10]
  viability, T/C: 89%
[11]
  viability, T/C: 90.7%
[12]
  viability, T/C: 105%
[13]
  viability, T/C: 100%
[14]
  viability, T/C: 96.5%
[15]
  viability, T/C: 91.9%
[16]
  viability, T/C: 86.9%
[17]
  viability, T/C: 93.3%
[18]
  viability, T/C: 102%
[19]
  viability, T/C: 99.6%
[20]
  viability, T/C: 90.1%
[21]
  viability, T/C: 89.6%
[22]
  viability, T/C: 89.9%
[23]
  viability, T/C: 93%
[24]
  viability, T/C: 102%
[25]
  viability, T/C: 97.4%
[26]
  viability, T/C: 93.3%
[27]
  viability, T/C: 89.8%
[28]
  viability, T/C: 90.7%
[29]
  viability, T/C: 96.1%
[30]
  viability, T/C: 95%
[31]
  viability, T/C: 99.9%
[32]
  viability, T/C: 87.7%
[33]
  viability, T/C: 83.9%
[34]
  viability, T/C: 87%
[35]
  viability, T/C: 83.5%
